Experimental data: PubChem BioAssay (NCI)
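48-hour exposure; five concentrations; linearly interpolated endpoints. GI50 = concentration required for 50% inhibition of growth. TGI: concentration producing complete growth inhibition.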

Experiments:
Assay in all cases: NCI-60 cell line screen, 48 h
DU-145 prostate = tested on: DU-145 prostate
HCC-2998 colon = tested on: HCC-2998 colon
HOP-62 NSCLC = tested on: HOP-62 NSCLC
KM12 colon = tested on: KM12 colon
LOX IMVI melanoma = tested on: LOX IMVI melanoma
NCI-H23 lung = tested on: NCI-H23 lung
RXF 393 renal = tested on: RXF 393 renal
SF-268 CNS = tested on: SF-268 CNS
SF-295 CNS = tested on: SF-295 CNS
T-47D breast = tested on: T-47D breast

Row | SMILES | GI50 (DU-145 prostate) [µM] | TGI (DU-145 prostate) [µM] | GI50 (HCC-2998 colon) [µM] | TGI (HCC-2998 colon) [µM] | GI50 (HOP-62 NSCLC) [µM] | TGI (HOP-62 NSCLC) [µM] | GI50 (KM12 colon) [µM] | TGI (KM12 colon) [µM] | GI50 (LOX IMVI melanoma) [µM] | TGI (LOX IMVI melanoma) [µM] | GI50 (NCI-H23 lung) [µM] | TGI (NCI-H23 lung) [µM] | GI50 (RXF 393 renal) [µM] | TGI (RXF 393 renal) [µM] | GI50 (SF-268 CNS) [µM] | TGI (SF-268 CNS) [µM] | GI50 (SF-295 CNS) [µM] | TGI (SF-295 CNS) [µM] | GI50 (T-47D breast) [µM] | TGI (T-47D breast) [µM]
1 | O=C(O)CCCCC(CCSCc1ccccc1)SCc1ccccc1 (configuration not stated) | > 71.2 | > 100 | 34.8 | > 100 | 68.6 | > 100 | 35.2 | > 100 | 48.2 | > 100 | 33.5 | > 100 | 27.3 | > 100 | > 67.2 | > 100 | 25.8 | > 74.5 | 44 | > 100
2 | COC(=O)CCCCN=Cc1c(O)c(O)c(C(C)C)c2cc(C)c(-c3c(C)cc4c(C(C)C)c(O)c(O)c(C=NCCCCC(=O)OC)c4c3O)c(O)c12 | 1.39 | > 32.5 | 1.19 | > 32.5 | 1.22 | 9.21 | 0.799 | > 32.5 | 0.822 | 2.43 | 1.07 | 27 | 0.596 | 3.18 | 1.34 | > 32.5 | 0.83 | 7.92 | 0.692 | 8.04
3 | O=NN(Cc1ccc(Cl)cc1)C(C(=O)O)c1ccccc1 (configuration not stated) |  | > 100 |  | > 100 |  | > 100 |  | > 100 |  | > 100 |  | > 100 |  | > 100 |  | > 100 |  | > 100 |  | > 100
4 | Cc1cc(I)cc(CNCCCN2CCSCC2)c1O | 20.3 | 42.7 | 12.7 | 26.9 | 14.3 | 28.3 | 16.9 | 35.9 | 14.6 | 28.4 | 20.9 | 63.7 | 11.1 | 24.1 | 17.2 | 36.4 | 11.8 | 24.6 | 16 | 40.6
5 | CCc1c(Oc2ccc(C(C)=O)cc2)c2ccccc2[nH]c1=O | 25.4 | 73.6 | 14.3 | 30 | 20.4 | 74.3 | 18.6 | > 60.9 | 17.3 | 46.2 | 18.7 | 59.5 | 20.1 | 45.7 | 18.1 | 61 | 16.3 | > 69.4 | 4.07 | 24.6
6 | COc1cccc(/C=N/NC(=O)c2ccccc2Nc2ccnc(C(F)(F)F)c2)c1O | 0.543 | > 47 | 0.29 | 33.5 | 0.431 | > 53.6 | 0.457 | > 56.4 | 0.264 | > 100 | 0.904 | 46.9 | 0.728 | 28 | 0.488 | > 51.1 | 0.522 | 29.1 | 0.498 | 38.8
7 | CCCCC/C(C=C(C#N)C#N)=C/c1ccccc1 | 5.23 | 24.6 | 4.69 | 9.77 | 6.98 | 17.4 | 3.37 | 13.2 | 2.17 | 5.47 | 3.62 | 13.6 | 5.82 | 22.3 | 2.45 | 9.51 | 2.76 | 14.6 | 4.93 | 26.1
8 | O=C1c2c(c3c4ccccc4n(CCCCCCBr)c3c3[nH]c4ccccc4c23)C(=O)N1O | 4.01 | 15.2 | 2.87 | 12.5 | 2.52 | 9.06 | 2.59 | 10.4 |  |  | 2.23 | 7.09 | 3.32 | 14.5 | 3.48 | 18.3 | 2.75 | 9.01 | 1.74 | 7.44
9 | CCOc1cccc(/C=N/NC(=O)c2ccccc2Nc2ccnc(C(F)(F)F)c2)c1O | 0.63 | > 100 | 0.398 | > 44.2 | 0.901 | > 53.8 | 0.513 | 47.7 | 0.241 | > 100 | 1.08 | > 64.5 | 11.5 | > 100 | 0.599 | > 100 | 0.516 | 30.6 | 0.582 | 37.5
10 | O=C1c2cccc(NCCN=Cc3cc(O)ccc3O)c2C(=O)c2c(NCCN=Cc3cc(O)ccc3O)cccc21 | 1.39 | 5.43 | 1.39 | 2.93 | 1.28 | 4.06 |  |  | 0.762 | 2.25 | 1.44 | 3.49 | 1.43 | 2.96 | 0.776 | 3.25 | 1.36 | 4.24 | 2.35 | 7.35
11 | COc1ccc2c(c1)c(-c1nc(-c3cn(C)c4ncccc34)cs1)cn2CCCN1CCCCC1 | 1.62 | 2.98 | 1.56 | 3.06 |  |  | 1.78 | 3.45 | 1.65 | 3.09 | 1.81 | 3.49 | 1.68 | 3.29 | 1.6 | 3.21 | 1.71 | 3.18 | 1.83 | 4.28
12 | Cn1c(N2NC(=O)C(N=Nc3ccc(S(N)(=O)=O)cc3)C2=O)nc(-c2ccco2)c(C#N)c1=O (configuration not stated) | 14.9 | > 50 |  |  | > 50 | > 50 | > 50 | > 50 | 8.08 | 18.7 | 12.8 | > 50 | 9.65 | 26.1 | 15.6 | > 50 | > 50 | > 50 | 7.58 | 19.7
